Results published in patent US20070142352A1, “Pteridinone Derivatives as Modulators of Chemokine Receptor Activity” (ASTRAZENECA AB, priority 2001, published 2007).

melting point [°C]	Structure (SMILES)
197 to 199	C[C@H](CO)Nc1nc(SCc2cccc(F)c2F)nc2[nH]c(=O)c(NCCO)nc12 [Example 1, 2-[[(2,3-difluorophenyl)methyl]thio]-6-[(2-hydroxyethyl)amino]-4-[[(1R)-2-hydroxy-1-methylethyl]amino]-7(8H)-pteridinone]
80 to 100	C[C@H](CO)Nc1nc(SCc2cccc(F)c2F)nc2[nH]c(=O)c(NCc3ccccc3)nc12 [Example 2, 2-[[(2,3-difluorophenyl)methyl]thio]-4-[[(1R)-2-hydroxy-1-methylethyl]amino]-6-[(phenylmethyl)amino]-7(8H)-pteridinone]
